Where “and” joins values, the source holds several entries; their conditions need not be identical. Identical values can stand only once. Like-named read-outs stand apart in the source and are kept apart here.
Assays:
[1] = system: hiPSC-CMs (human induced pluripotent stem cell-derived cardiomyocyte-like cells, lines C2 and C3); assay: Multielectrode array (MEA) field potential recording: cFPD and FPmin; assay type: cell-based; settings: for FPmin (normalized values): baseline 100±0; for change in FPmin (in words) / changes in cFPD (in words): drug alone; for changes in cFPD (in words): CMs from both cell lines; for cFPD (normalized) after reversal of isoprenaline-reduced cFPD: beta-blocker applied after isoprenaline (0.1 μM); for cFPD effect relative to human ETPC unbound range (in words): non-linear regression of normalized cFPD, dose range 10^−9-10^−4 M
Procedure: Human iPSC lines [MSnviPSNF2 (C2), MSnviPSNF3 (C3)] were maintained on 1% matrigel (BD Biosciences, CA, USA) and grown in chemically defined mTeSR1 medium (Stem Cell Technologies, VA, Canada). Care was taken to manually remove the differentiated areas (<10%) with the help of a scraper before passaging. Cells were washed with DMEM-F12 (Invitrogen, USA) and incubated with 1 mg/ml dispase (Sigma, USA) for 5-7 minutes. Cells were then washed with DMEM-F12 and colonies scrapped from the culture dishes. Controlled tituration of the colonies was performed to get small clumps of approximately 50-70 μm in size for replating on new matrigel coated dishes (1:6 split ratio).
Subsequently, EBs were plated on 0.1% gelatin coated dishes in EB medium without SB203580. […] Beating areas were manually cut after day 21 of differentiation and utilized for various experiments.
(§1) To characterize the electrophysiological properties of the hiPSC-CMs, a multielectrode array (MEA) recording system (Multichannel Systems, Reutlingen, Germany) was used. The contracting areas were microdissected and plated on gelatin coated MEA plates. The MEA system allows simultaneous recordings from 60 titanium nitride electrodes (30 μm) at high spatial (200 μm) and temporal (15 kHz) resolutions. To assess the effects of different drugs on the electrophysiological properties, the stock drugs in DMSO were diluted in medium (2 mL). All drugs utilized in the study were purchased from Sigma, USA. Extracellular recording were performed for 180-300 seconds at baseline and at 5 minutes after drug application. The local activation maps were generated using Cardio2D software (Multichannel Systems, Reutlingen, Germany). The recorded electrograms were also used to determine the local field potential (FP) duration (FPD).
Comparisons at each time point were conducted using analysis of variance (ANOVA), and all data are presented as mean values±s.e.m of three independent experiments. Differences were considered statistically significant at p≦0.05. Corrected field potential duration curves were fitted using the one phase decay algorithm from GraphPad Prism software.

[2] = system: hiPSC-CMs; settings: for modulation of beating rates (in words): beta-blocker applied alone; for effect on isoprenaline-induced increase in beating frequencies (in words): clusters initially treated with isoprenaline
From the text: as §1
The different agents were also evaluated to determine if these agents (drugs) could induce arrhythmia in hiPSC-CMs at supraphysiological ranges.

[3] = system: hiPSC-CMs; assay: MEA conduction velocity; assay type: cell-based, human
From the text: as §1

[4] = system: contracting EBs (iPSC-derived cardiomyocyte-like cells); assay: Beat rate variability analysis in beta-adrenergic response (power spectral density of RR intervals); assay type: cell-based, human; settings: 0.1 μM isoprenaline, then 1 μM beta-blocker where stated
From the text: To study the autonomic modulations of beating period of the contracting EBs, power spectral density of beat-to-beat or RR intervals based on 5-min recordings from the MEA were used to derive the Total Power (TP), very low frequency power (VLF), low frequency power (LF), high frequency power (HF), LF (normalized unit), HF (normalized unit) and ratio of LF/HF of spectral of beat rate variability using software such as HRV Toolkit (physionet.org/tutorials/hrv-toolkit/, Harvard Medical School) or LabVIEW Biomedical Toolkit for heart rate variability. […] The data were obtained using iPSC-derived cardiomyocyte-like cells from an individual with genetic pre-disposition to cardiac arrhythmia (n=4; referring to 4 regional areas within an EB), and iPSC-derived cardiomyocyte-like cells from a normal individual without genetic pre-disposition to cardiac arrhythmia (n=10).

[5] = human, unbound therapeutic plasma concentration; cited from earlier work
[6] = EBs from individual with genetic disposition to arrhythmia (n=4)
[7] = EBs from normal healthy donor (n=10)
[8] = over all three tested doses (range 0.01-10 μM)

SMILES: CCCCc1oc2ccccc2c1C(=O)c1cc(I)c(OCCN(CC)CC)c(I)c1 [amiodarone, Amiodarone]
- cFPD prolongation ([1]; 1 μM): 37%
- cFPD ([1]; 1 μM, C2 derived CM, baseline 0.26±0.009 s, n=3): 0.36 ± 0.01 s
- FPmin shortening ([1]; 1 μM, C2 derived CMs): 25%
- FPmin (normalized values) ([1]; 1 μM, C2 derived CMs, n=3): 73.6±3.8
- FPmin (normalized values) ([1]; 1 μM, C3 derived CMs, n=3, ns): 90±2.7
- FPmin reduction ([1]; 1 μM, C3 derived CMs, ns): 10%
- effect on beating frequencies (in words) ([2]; higher doses, 10-100 μM): increased beating frequencies

SMILES: O=C(NCC1CCCCN1)c1cc(OCC(F)(F)F)ccc1OCC(F)(F)F (centres unmarked) [flecainide, Flecainide]
- increase in cFPDs ([1]; 1 μM): 1.7 fold
- cFPD ([1]; 1 μM, C2 derived CMs, baseline 0.32±0.04 s, n=3): 0.55 ± 0.06 s
- change in FPmin (in words) [1]: did not show any significant change
- reduction of conduction velocity ([3]; 1 μM): 45%
- reduction of conduction velocity (in words) ([3]; lowest dose, 0.01 μM): did not show any significant reduction
- increase in beating frequencies ([2]; 10 μM): 2 fold

SMILES: CC(C)NCC(O)c1ccc(O)c(O)c1 (centres unmarked) [isoprenaline]
- HF (normalized unit) [4, 6]: 38.864±16.674%
- LF (normalized unit) [4, 6]: 61.136±16.674%
- LF/HF ratio [4, 6]: 1.897±1.052
- Total Power (TP) of beat rate variability [4, 6]: 0.464±0.047 ms^2
- high frequency power (HF) [4, 6]: 0.064±0.095 ms^2
- low frequency power (LF) [4, 6]: 0.058±0.043 ms^2
- very low frequency power (VLF) [4, 6]: 0.341±0.167 ms^2
- HF (normalized unit) [4, 7]: 25.494±2.381%
- LF (normalized unit) [4, 7]: 74.505±2.380%
- LF/HF ratio [4, 7]: 2.949±0.326
- Total Power (TP) of beat rate variability [4, 7]: 0.645±0.001 ms^2
- high frequency power (HF) [4, 7]: 0.017±0.002 ms^2
- low frequency power (LF) [4, 7]: 0.050±0.001 ms^2
- very low frequency power (VLF) [4, 7]: 0.578±0.002 ms^2
- cFPD reduction ([1]; 0.1 μM): 20%
- cFPD (normalized) ([1]; 0.1 μM isoprenaline, baseline 100±0.0%, n=3): 81.2±2.4% and 79.6±3.4%
- effect on beating frequencies (in words) ([2]; clusters treated with the beta-adrenergic agonist): significant increase in beating frequencies

SMILES: CCN(CC)CC(=O)Nc1c(C)cccc1C [lidocaine, Lidocaine]
- changes in cFPD (in words) [1]: did not demonstrate any significant changes
- effect on FPmin, dose-dependent treatment (in words) ([1]; maximal effects at 10 μM dosage): FPmin shortening
- reduction of conduction velocity [3, 8]: 40%

SMILES: CC(C)(C)NCC(O)COc1cccc2c1CC(O)C(O)C2 (centres unmarked) [nadolol, Nadolol]
- cFPD (normalized) after reversal of isoprenaline-reduced cFPD ([1]; n=3): 92.3±1.5%
- change in FPmin (in words) [1]: did not have any significant effects
- changes in cFPD (in words) [1]: did not have any significant effects
- cFPD effect relative to human ETPC unbound range (in words) [1]: no significant cFPD prolongation within the ETPC unbound range
- modulation of beating rates (in words) [2]: not apparent
- effect on isoprenaline-induced increase in beating frequencies (in words) [2]: reversed
- ETPC unbound range [5]: 0.18 to 0.80 µM

SMILES: CC(C)NCC(O)COc1cccc2ccccc12 (centres unmarked) [propranolol, Propranolol]
- cFPD (normalized) after reversal of isoprenaline-reduced cFPD ([1]; n=3): 98.3±4.5%
- change in FPmin (in words) [1]: did not have any significant effects
- changes in cFPD (in words) [1]: did not have any significant effects
- modulation of beating rates (in words) [2]: not apparent
- effect on isoprenaline-induced increase in beating frequencies (in words) [2]: reversed
- effect on beating frequencies (in words) ([2]; higher doses, 10-100 μM): did not show any major effect

SMILES: C=C[C@H]1C[N@@]2CC[C@H]1C[C@@H]2[C@@H](O)c1ccnc2ccc(OC)cc12 [quinidine, Quinidine]
- FPmin shortening ([1]; 10 μM, C2 cell line derived CMs): 55%
- FPmin (normalized) ([1]; 10 μM, C2 cell line derived CMs, baseline 100, n=3): 45±3.5%
- cFPD ([1]; 10 μM, C2 line derived CMs, baseline 0.31±0.03 s, n=3): 0.50 ± 0.05 s
- maximum FPmin shortening ([1]; 10 μM, C3 cell line derived CMs): 37%
- cFPD prolongation ([1]; 10 μM, CMs derived from C2 line): 62%
- cFPD prolongation ([1]; 10 μM, hiPSC-CMs (FIG. 1A, C)): 55%
- reduction of conduction velocity [3, 8]: 20-25%
- increase in beating frequencies ([2]; 100 μM): 3 fold
- beating frequency (BF) ([2]; 100 μM, baseline 0.66±0.06 Hz, n=3): 1.84±0.08 Hz

SMILES: CC(C)NCC(O)c1ccc(NS(C)(=O)=O)cc1 (centres unmarked) [sotalol, Sotalol]
- cFPD prolongation ([1]; 50 μM): 65%
- change in FPmin (in words) [1]: did not show any significant change
- cFPD effect relative to human ETPC unbound range (in words) [1]: maximally observed within the human ETPC range
- increase in beating frequencies ([2]; 500 μM): 1.8 fold
- ETPC unbound range [5]: 1.8 to 14 µM

SMILES: COc1ccc(CCN(C)CCCC(C#N)(c2ccc(OC)c(OC)c2)C(C)C)cc1OC (centres unmarked) [verapamil, Verapamil]
- effect on beating frequencies (in words) [2]: significantly reduced beating frequencies
- effect of prolonged exposure (in words) ([2]; 5 μM): beating arrest

Source: patent US20140363841A1, “INDUCED PLURIPOTENT STEM CELL (IPSC)-DERIVED CARDIOMYOCYTE-LIKE CELLS AND USES THEREOF” (priority 2012, published 2014)
